The record followed here is patent US20100234349A1, “PHARMACEUTICAL COMBINATIONS OF A NICOTINE RECEPTOR MODULATOR AND A COGNITIVE ENHANCER” (priority 2006, published 2010).

“Also recorded” adds a separate entry of the source.

By ED50 is commonly meant the midpoint of the dose-response relation.

The test relates to mouse. Kind of test: mouse marble burying paradigm. Type of test: in vivo. Here is the method:
FIGS. 3A-3D show mouse marble burying 15 minutes after s.c. dosing of 1-(3-Pyridyl)-homopiperazine (Compound 1F of WO 99/21834) as cognition enhancer, and 30 minutes after p.o. dosing of 3-(3-Pyridin-3-yl-[1,2,4]oxadiazol-5-yl)-benzonitrile (Compound 4.15) as positive allosteric modulator: […]

For the compound `N#Cc1cccc(-c2nc(-c3cccnc3)no2)c1` [Compound 4.15, 3-(3-Pyridin-3-yl-[1,2,4]oxadiazol-5-yl)-benzonitrile], the “effect in mouse marble burying, positive allosteric modulator alone” value (alone, dosed p.o. at 3 and 10 mg/kg, 30 minutes after dosing (FIG. 3A)) is “no effect; also recorded: inactive”.
Regarding `c1cncc(N2CCCNCC2)c1` [Compound 1F of WO 99/21834, 1-(3-Pyridyl)-homopiperazine, reference compound], where the note is “Mus musculus, sc, 0.25 h, read-out: ED50, mouse marble burying”, the ED50 worked out at 0.56 mg/kg.
